What all share (test): MIC determination, broth microdilution (CLSI)
Common to all, as to assay type: cell-based
Background: Dilution methods test growth across graded concentrations, often in twofold steps.

The subject of experiment [1] is E. coli ATCC25922. Conditions: Escherichia coli, ATCC25922, strain 1.
The subject of experiment [2] is K. pneumoniae 60. Conditions: Klebsiella pneumoniae, 60, strain 2.
For experiment [3], the system named is E. cloacae 34654. Particulars: Enterobacter cloacae, 34654, strain 3.
Experiment [4] relates to C. freundii K21/3034. Conditions: Citrobacter freundii, K21/3034, strain 4.
Experiment [5] concerns M. morganii 126/3048. Particulars: Morganella morganii, 126/3048, strain 5.
Experiment [6] deals with P. aeruginosa PAO1. Particulars: Pseudomonas aeruginosa, PAO1, strain 6.
Experiment [7] has as its system P. aeruginosa 2297 (AmpC wt). Particulars: Pseudomonas aeruginosa, strain 7.
Experiment [8] has as its system P. aeruginosa 2297-con (AmpC derepressed). Conditions: Pseudomonas aeruginosa, read-out: strain 8 MIC, strain 8.
Experiment [9] concerns A. baumannii ATCC15308. Conditions: Acinetobacter baumannii, ATCC15308, strain 9.
Experiment [10] relates to S. aureus 133. Particulars: Staphylococcus aureus, 133, strain 11; read-out: strain 11 MIC.
The subject of experiment [11] is M. catarrhalis ICB489. Conditions: Moraxella catarrhalis, ICB489, strain 12.
Experiment [12] has as its system H. influenzae ATCC 49247. Conditions: Haemophilus influenzae, ATCC49247, strain 13; read-out: strain 13 MIC.
Experiment [13] concerns S. pneumoniae 113. Conditions: Streptococcus pneumoniae, 113, strain 14; read-out: strain 14 MIC.
Experiment [14] has as its system B. fragilis 6688. Particulars: Bacteroides fragilis, 6688, strain 15; read-out: strain 15 MIC.
In experiment [15] the test system is E. coli J62. Particulars: Escherichia coli, J62, strain 17; read-out: strain 17 MIC.
For experiment [16], the system named is E. coli J62-TEM-3. Particulars: Escherichia coli, J62TEM3, read-out: strain 18 MIC, strain 18.
Experiment [17] relates to strain 19.
Experiment [18] relates to strain 20.
In experiment [19] the test system is strain 21.

Here are results for three molecules from US9556165B2 (priority 2012, dated 2017).

≈ marks a conversion by molar mass, not a printed value.

Take `C[C@H]1[C@H](NC(=O)/C(=N\OCCOc2ccc(C(=N)N)nn2)c2csc(N)n2)C(=O)N1S(=O)(=O)O` [Example 28, (2S,3S)-3-{[(2Z)-2-(2-Amino-1,3-thiazol-4-yl)-2-({2-[(6-carbamimidoylpyridazin-3-yl)oxy]ethoxy}imino)acetyl]amino}-2-methyl-4-oxoazetidine-1-sulfonic acid]: the MIC is 0.125 mg/L (≈ 0.243 µM) in experiment [1]; 0.125 mg/L (≈ 0.243 µM) in [2]; 0.125 mg/L (≈ 0.243 µM) in [3]; 0.125 mg/L (≈ 0.243 µM) in [4]; 0.125 mg/L (≈ 0.243 µM) in [5]; 4 mg/L (≈ 7.79 µM) in [6]. Further, the MIC was determined as 8 mg/L (≈ 15.6 µM) in experiment [7]; 32 mg/L (≈ 62.3 µM) in experiment [8]; 0.5 mg/L (≈ 0.974 µM) in experiment [9]; 0.125 mg/L (≈ 0.243 µM) in experiment [10]; 0.25 mg/L (≈ 0.487 µM) in experiment [11]; 0.5 mg/L (≈ 0.974 µM) in experiment [12]. Also, the MIC amounted to 2 mg/L (≈ 3.89 µM) in experiment [13]; 8 mg/L (≈ 15.6 µM) in experiment [14]; 0.25 mg/L (≈ 0.487 µM) in experiment [15]; 32 mg/L (≈ 62.3 µM) in experiment [16]; 0.25 mg/L (≈ 0.487 µM) in experiment [17]; 0.25 mg/L (≈ 0.487 µM) in experiment [18]. The same molecule returned an MIC in experiment [19] of 0.25 mg/L (≈ 0.487 µM).

For the molecule `C[C@H]1[C@H](NC(=O)/C(=N\OCCOc2ccc(C(=N)N)nc2)c2csc(N)n2)C(=O)N1S(=O)(=O)O` [Example 3, (2S,3S)-3-{[(2Z)-2-(2-Amino-1,3-thiazol-4-yl)-2-({2-[(6-carbamimidoylpyridin-3-yl)oxy]ethoxy}imino)acetyl]amino}-2-methyl-4-oxoazetidine-1-sulfonic acid], the MIC in [1] is 0.125 mg/L (≈ 0.244 µM); in experiment [2] it was no more than 0.063 mg/L; in experiment [3], 0.125 mg/L (≈ 0.244 µM); in experiment [4], no more than 0.063 mg/L; in experiment [5], 0.125 mg/L (≈ 0.244 µM); in experiment [6], 2 mg/L (≈ 3.9 µM). Besides, the MIC is 4 mg/L (≈ 7.8 µM) in experiment [7]; 16 mg/L (≈ 31.2 µM) in [8]; 1 mg/L (≈ 1.95 µM) in [9]; no more than 0.063 mg/L in [10]; 0.125 mg/L (≈ 0.244 µM) in experiment [11]; 0.5 mg/L (≈ 0.976 µM) in experiment [12]. In addition, the MIC in experiment [13] was determined as 8 mg/L (≈ 15.6 µM); in experiment [14], 8 mg/L (≈ 15.6 µM); in experiment [15], 0.25 mg/L (≈ 0.488 µM); in experiment [16] it was 16 mg/L (≈ 31.2 µM); in [17] it was 0.125 mg/L (≈ 0.244 µM); in experiment [18] it was 0.125 mg/L (≈ 0.244 µM). This molecule also returned an MIC in experiment [19] of 0.25 mg/L (≈ 0.488 µM).

For the molecule `C[C@H]1[C@H](NC(=O)/C(=N\OCCOc2ccc(C(=N)N)cn2)c2csc(N)n2)C(=O)N1S(=O)(=O)O` [Example 5, (2S,3S)-3-{[(2Z)-2-(2-Amino-1,3-thiazol-4-yl)-2-({2-[(5-carbamimidoylpyridin-2-yl)oxy]-ethoxy}imino)acetyl]amino}-2-methyl-4-oxoazetidine-1-sulfonic acid], the MIC in [1] was 0.25 mg/L (≈ 0.488 µM); in experiment [2] it was no more than 0.063 mg/L; in experiment [3], 0.125 mg/L (≈ 0.244 µM); in experiment [4], 0.25 mg/L (≈ 0.488 µM); in experiment [5] it was 0.125 mg/L (≈ 0.244 µM); in [6], 4 mg/L (≈ 7.8 µM). Also, the MIC in experiment [7] stood at 4 mg/L (≈ 7.8 µM); in experiment [8] it was 32 mg/L (≈ 62.4 µM); in [9] it was 1 mg/L (≈ 1.95 µM); in experiment [10], 0.125 mg/L (≈ 0.244 µM); in [11] it was 0.25 mg/L (≈ 0.488 µM); in experiment [12], 0.5 mg/L (≈ 0.976 µM). The MIC turned out to be 4 mg/L (≈ 7.8 µM) in [13]; 8 mg/L (≈ 15.6 µM) in [14]; 0.5 mg/L (≈ 0.976 µM) in experiment [15]; 16 mg/L (≈ 31.2 µM) in [16]; 0.25 mg/L (≈ 0.488 µM) in experiment [17]; 0.25 mg/L (≈ 0.488 µM) in [18]. This molecule also had an MIC in experiment [19] of 0.25 mg/L (≈ 0.488 µM).
